In ChEMBL document CHEMBL1153832, “Identification and characterization of UK-201844, a novel inhibitor that interferes with human immunodeficiency virus type 1 gp160 processing” (Antimicrob Agents Chemother, 2007) one finds EC50, inhibition in vivo and Activity data, which are given here for 2 molecules.

The source made the active and inactive calls. The rule behind the calls is not given here.

Experiment [1] relates to Human immunodeficiency virus 1. Nature of the experiment: Antiviral activity against HIV1 bearing HIV1 NL4-3 envelope infected in human HeLa CD4 cells coexpressing LTR/beta-Gal gene assessed as reduction in virus-induced beta-galactosidase reporter gene activity after 72 hrs by single-cycle infection assay. The experiment is classed as functional, organism-based. Conditions: Human immunodeficiency virus 1, HeLa. (In a reporter assay the amount or activity of a reporter protein is the signal.)

Experiment [2] has as its system Human immunodeficiency virus 1. Nature of the experiment: Antiviral activity against HIV1 bearing VSV envelope infected in human HeLa CD4 cells coexpressing LTR/beta-Gal gene assessed as reduction in virus-induced beta-galactosidase reporter gene activity after 72 hrs by single-cycle infection assay. Conditions: Human immunodeficiency virus 1, HeLa. The experiment is classed as functional, organism-based.

Experiment [3] deals with Human immunodeficiency virus 1. As to the kind of experiment: Antiviral activity against HIV1 bearing VSV envelope infected in human MT2 cells assessed as inhibition of VSV-envelope packed virions at 0.12 uM after 72 hrs by virus production assay relative to control. The experiment is classed as functional. Conditions: Human immunodeficiency virus 1, MT2, 72 h.
The test system of experiment [4] is Human immunodeficiency virus 1. Nature of the experiment: Inhibition of HIV1 NL4-3 proteins incorporation into virions transfected in HEK293 cells assessed as unprocessed gp160 Env protein at 0.12 uM by Western blot. The experiment is classed as functional, organism-based. For orientation: A western blot detects proteins with antibodies after separation by electrophoresis.

For experiment [5], the system named is Human immunodeficiency virus 1. Nature of the experiment: Antiviral activity against HIV1 bearing HIV1 NL4-3 envelope infected in human MT2 cells assessed as inhibition of HIV-envelope packed virions at 0.12 uM after 72 hrs by virus production assay relative to control. The experiment is classed as functional. Conditions: Human immunodeficiency virus 1, MT2, 72 h.

Experiment [6] has as its system Human immunodeficiency virus 1. Nature of the experiment: Antiviral activity against HIV1 NL4-3 transfected in HEK293 cells assessed as inhibition of infectious virus production at 0.12 uM. The format is functional. More on the design: scale not given: the % may be the effect or the level left.
Experiment [7] concerns Human immunodeficiency virus 1. Nature of the experiment: Inhibition of HIV1 NL4-3 proteins incorporation into virions transfected in HEK293 cells assessed as aberrant Env protein at 0.12 uM by Western blot. The format is functional, organism-based.

The term EC50 denotes the midpoint of the concentration-response curve. In the case of `O=C(O)C1=CC(=C(c2ccc(O)c(C(=O)O)c2)c2ccc(O)c(C(=O)O)c2)C=CC1=O` [AURINTRICARBOXYLIC ACID], the figures for the EC50 in experiment [1] and in experiment [2] were 76 nM and over 76 µM, respectively.
The inhibition in vivo is the relative decrease from the control value, in per cent. Regarding `Cc1c(O)cccc1C(=O)N[C@@H](CSc1ccccc1)[C@H](O)CN1C[C@H]2CCCC[C@H]2C[C@H]1C(=O)NC(C)(C)C` [NELFINAVIR], the inhibition in vivo at 0.12 µM in experiment [3] came to 97%; in experiment [5], 88%. Further, the EC50 is over 1000 nM in experiment [1] and over 1 µM in experiment [2]. Besides, the outcome in experiment [4] and in experiment [7] was Active. The Activity in experiment [6] was 94%.
